Results: PubChem BioAssay (NCI)
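Values below derive from 48-hour exposures of cells grown in 96-well plates, with endpoints linearly interpolated between the two concentrations bracketing the appropriate inhibition level. Definition used: TGI = concentration required for complete inhibition of growth.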

Columns and labels:
Test in all cases: inhibition of tumour cell growth, NCI panel, 48 h
SW-620 colon = tested on: SW-620 colon
HT29 colon = tested on: HT29 colon
OVCAR-8 ovarian = tested on: OVCAR-8 ovarian
RXF 393 renal = tested on: RXF 393 renal
OVCAR-4 ovarian = tested on: OVCAR-4 ovarian
SF-295 CNS = tested on: SF-295 CNS
OVCAR-3 ovarian = tested on: OVCAR-3 ovarian
MALME-3M melanoma = tested on: MALME-3M melanoma
LOX IMVI melanoma = tested on: LOX IMVI melanoma
PC-3 prostate = tested on: PC-3 prostate
MCF7 breast = tested on: MCF7 breast
SK-MEL-28 melanoma = tested on: SK-MEL-28 melanoma
EKVX NSCLC = tested on: EKVX NSCLC
HOP-92 NSCLC = tested on: HOP-92 NSCLC
SK-MEL-5 melanoma = tested on: SK-MEL-5 melanoma
TK-10 renal = tested on: TK-10 renal
SF-268 CNS = tested on: SF-268 CNS
ACHN renal = tested on: ACHN renal
786-0 renal = tested on: 786-0 renal
K-562 leukemia = tested on: K-562 leukemia
MDA-MB-435 = tested on: MDA-MB-435
U251 CNS = tested on: U251 CNS
A498 renal = tested on: A498 renal
IGROV1 ovarian = tested on: IGROV1 ovarian
SNB-19 CNS = tested on: SNB-19 CNS
MDA-MB-231 breast = tested on: MDA-MB-231 breast
DU-145 prostate = tested on: DU-145 prostate
SK-OV-3 ovarian = tested on: SK-OV-3 ovarian
SK-MEL-2 melanoma = tested on: SK-MEL-2 melanoma
NCI-H23 lung = tested on: NCI-H23 lung
HCT-15 colon = tested on: HCT-15 colon
UACC-62 melanoma = tested on: UACC-62 melanoma
RPMI-8226 leukemia = tested on: RPMI-8226 leukemia
NCI/ADR-RES ovarian = tested on: NCI/ADR-RES ovarian
HCC-2998 colon = tested on: HCC-2998 colon
NCI-H522 lung = tested on: NCI-H522 lung
SNB-75 CNS = tested on: SNB-75 CNS
UACC-257 melanoma = tested on: UACC-257 melanoma
MOLT-4 leukemia = tested on: MOLT-4 leukemia
NCI-H226 lung = tested on: NCI-H226 lung
HCT-116 colon = tested on: HCT-116 colon
M14 melanoma = tested on: M14 melanoma
CAKI-1 renal = tested on: CAKI-1 renal
OVCAR-5 ovarian = tested on: OVCAR-5 ovarian
KM12 colon = tested on: KM12 colon
HS 578T breast = tested on: HS 578T breast
A549 NSCLC = tested on: A549 NSCLC
T-47D breast = tested on: T-47D breast
COLO 205 colon = tested on: COLO 205 colon
SF-539 CNS = tested on: SF-539 CNS
CCRF-CEM leukemia = tested on: CCRF-CEM leukemia
HOP-62 NSCLC = tested on: HOP-62 NSCLC
MDA-N = tested on: MDA-N
NCI-H460 lung = tested on: NCI-H460 lung
HL-60(TB) leukemia = tested on: HL-60(TB) leukemia
SN12C renal = tested on: SN12C renal
SR leukemia = tested on: SR leukemia
UO-31 renal = tested on: UO-31 renal

`O=c1c2c(F)c(F)c(F)c(F)c2sc2nccn12` gave a TGI (SW-620 colon) of 33 µM, a TGI (HT29 colon) of 34.7 µM and a TGI (OVCAR-8 ovarian) of 44.8 µM. The TGI (RXF 393 renal) was 32 µM, the TGI (OVCAR-4 ovarian) was 35.8 µM and the TGI (SF-295 CNS) was 36.3 µM. It also gave a TGI (OVCAR-3 ovarian) of 29.8 µM, a TGI (MALME-3M melanoma) of 35.4 µM and a TGI (LOX IMVI melanoma) of 26.7 µM. The TGI (PC-3 prostate) was 35.9 µM, the TGI (MCF7 breast) was 37.9 µM and the TGI (SK-MEL-28 melanoma) was 53.5 µM. For the same compound, the TGI (EKVX NSCLC) was 50.2 µM, the TGI (HOP-92 NSCLC) was 39.4 µM and the TGI (SK-MEL-5 melanoma) was 35.8 µM. It also gave a TGI (TK-10 renal) of 32.8 µM, a TGI (SF-268 CNS) of 36.2 µM and a TGI (ACHN renal) of 30 µM. It also gave a TGI (786-0 renal) of 29.3 µM, a TGI (K-562 leukemia) of 29.4 µM and a TGI (MDA-MB-435) of 28.6 µM. For the same compound, the TGI (U251 CNS) was 29.2 µM, the TGI (A498 renal) was 35.1 µM and the TGI (IGROV1 ovarian) was 32.3 µM. It also gave a TGI (SNB-19 CNS) of 35.9 µM, a TGI (MDA-MB-231 breast) of 35.9 µM and a TGI (DU-145 prostate) of 41.9 µM. It also gave a TGI (SK-OV-3 ovarian) of 36 µM, a TGI (SK-MEL-2 melanoma) of 38.5 µM and a TGI (NCI-H23 lung) of 34.9 µM. It also gave a TGI (HCT-15 colon) of 29 µM, a TGI (UACC-62 melanoma) of 31.8 µM and a TGI (RPMI-8226 leukemia) of 42.4 µM. The TGI (NCI/ADR-RES ovarian) was 93.3 µM, the TGI (HCC-2998 colon) was 31.9 µM and the TGI (NCI-H522 lung) was 37.2 µM. The TGI (SNB-75 CNS) was 50.4 µM, the TGI (UACC-257 melanoma) was 45.5 µM and the TGI (MOLT-4 leukemia) was 9.62 µM. For the same compound, the TGI (NCI-H226 lung) was 52.3 µM, the TGI (HCT-116 colon) was 27.7 µM and the TGI (M14 melanoma) was 32 µM. The TGI (CAKI-1 renal) was 33.3 µM, the TGI (OVCAR-5 ovarian) was 36.3 µM and the TGI (KM12 colon) was 32.2 µM. For the same compound, the TGI (HS 578T breast) was 76.2 µM, the TGI (A549 NSCLC) was 36.7 µM and the TGI (T-47D breast) was 24.2 µM. The TGI (COLO 205 colon) was 32.7 µM, the TGI (SF-539 CNS) was 31.4 µM and the TGI (CCRF-CEM leukemia) was 29.6 µM. The TGI (HOP-62 NSCLC) was 42.3 µM, the TGI (MDA-N) was 29.4 µM and the TGI (NCI-H460 lung) was 27.3 µM. For the same compound, the TGI (HL-60(TB) leukemia) was 4.14 µM, the TGI (SN12C renal) was 33.3 µM and the TGI (SR leukemia) was 18.7 µM.

`N#Cc1c(O)c2ccccc2[nH]c1=O` gave a TGI (SW-620 colon) greater than 100 µM, a TGI (HT29 colon) greater than 100 µM and a TGI (OVCAR-8 ovarian) greater than 100 µM. The TGI (RXF 393 renal) was greater than 100 µM, the TGI (OVCAR-4 ovarian) was greater than 100 µM and the TGI (SF-295 CNS) was greater than 100 µM. It also gave a TGI (OVCAR-3 ovarian) greater than 100 µM, a TGI (MALME-3M melanoma) greater than 100 µM and a TGI (LOX IMVI melanoma) greater than 100 µM. The TGI (PC-3 prostate) was greater than 100 µM, the TGI (MCF7 breast) was greater than 100 µM and the TGI (SK-MEL-28 melanoma) was greater than 100 µM. For the same compound, the TGI (EKVX NSCLC) was greater than 100 µM, the TGI (HOP-92 NSCLC) was greater than 100 µM and the TGI (SK-MEL-5 melanoma) was greater than 100 µM. For the same compound, the TGI (TK-10 renal) was greater than 100 µM, the TGI (ACHN renal) was greater than 100 µM and the TGI (786-0 renal) was greater than 100 µM. The TGI (K-562 leukemia) was greater than 100 µM, the TGI (MDA-MB-435) was greater than 100 µM and the TGI (U251 CNS) was greater than 100 µM. For the same compound, the TGI (A498 renal) was greater than 100 µM, the TGI (IGROV1 ovarian) was greater than 100 µM and the TGI (SNB-19 CNS) was greater than 100 µM. It also gave a TGI (MDA-MB-231 breast) greater than 100 µM, a TGI (DU-145 prostate) greater than 100 µM and a TGI (SK-OV-3 ovarian) greater than 100 µM. For the same compound, the TGI (SK-MEL-2 melanoma) was greater than 100 µM, the TGI (NCI-H23 lung) was greater than 100 µM and the TGI (HCT-15 colon) was greater than 100 µM. It also gave a TGI (UACC-62 melanoma) greater than 100 µM, a TGI (RPMI-8226 leukemia) greater than 100 µM and a TGI (NCI/ADR-RES ovarian) greater than 100 µM. It also gave a TGI (HCC-2998 colon) greater than 100 µM, a TGI (NCI-H522 lung) greater than 100 µM and a TGI (SNB-75 CNS) greater than 100 µM. It also gave a TGI (UACC-257 melanoma) greater than 100 µM, a TGI (MOLT-4 leukemia) greater than 100 µM and a TGI (NCI-H226 lung) greater than 100 µM. The TGI (HCT-116 colon) was greater than 100 µM, the TGI (M14 melanoma) was greater than 100 µM and the TGI (CAKI-1 renal) was greater than 100 µM. It also gave a TGI (OVCAR-5 ovarian) greater than 100 µM, a TGI (KM12 colon) greater than 100 µM and a TGI (A549 NSCLC) greater than 100 µM. The TGI (T-47D breast) was greater than 100 µM, the TGI (COLO 205 colon) was greater than 100 µM and the TGI (SF-539 CNS) was greater than 100 µM. It also gave a TGI (CCRF-CEM leukemia) greater than 100 µM, a TGI (HOP-62 NSCLC) greater than 100 µM and a TGI (MDA-N) greater than 100 µM. For the same compound, the TGI (HL-60(TB) leukemia) was greater than 100 µM, the TGI (SN12C renal) was greater than 100 µM and the TGI (UO-31 renal) was greater than 100 µM.
